Experimental data as given in patent US20060069132A1, “Azolecarboxamide herbicides” (priority 2004, published 2006).

Tests used:
barnyardgrass [1] = assay: Test B pre-/postemergence herbicide test; format: in vivo, Echinochloa crus-galli
Summary of the method: (§1)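 Species tested were Echinochloa crus-galli, Ipomoea coccinea, Xanthium strumarium and Oryza sativa, treated both before emergence and at the 1- to 4-leaf stage; rice and barnyardgrass were also tested under flooding at 2 leaves. Greenhouse incubation lasted 13–15 days before visual 0–100 scoring.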

Surinam grass = assay: Test B pre-/postemergence herbicide test; format: in vivo, Urochloa decumbens
Summary of the method: (§2)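 Response was scored visually 13 to 15 days after treatment against untreated greenhouse controls, 0 meaning no effect and 100 complete control. Formulations (solvent mixture plus surfactant) went onto soil after planting, onto foliage of 1- to 4-leaf plants, and onto 2-leaf plants in a flooded paddy set including rice and barnyardgrass.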

cocklebur = assay: Test B pre-/postemergence herbicide test; format: in vivo, Xanthium strumarium
Summary of the method: as §1

corn = assay: Test B pre-/postemergence herbicide test; format: in vivo, Zea mays
Summary of the method: as §2

large crabgrass = assay: Test B pre-/postemergence herbicide test; format: in vivo, Digitaria sanguinalis
Summary of the method: as §2

giant foxtail = assay: Test B pre-/postemergence herbicide test; format: in vivo, Setaria faberi
Summary of the method: as §2

lambsquarters = assay: Test B pre-/postemergence herbicide test; format: in vivo, Chenopodium album
Summary of the method: as §2

morningglory = assay: Test B pre-/postemergence herbicide test; format: in vivo, Ipomoea coccinea
Summary of the method: as §1

pigweed = assay: Test B pre-/postemergence herbicide test; format: in vivo, Amaranthus retroflexus
Summary of the method: as §2

blackgrass = assay: Test B postemergence herbicide test; format: in vivo, Alopecurus myosuroides; details: scale 0 (no effect) to 100 (complete control); for Plant response rating, Blackgrass: visual rating after 13 to 15 days
Summary of the method: (§3)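 Plants grow to 1- to 4-leaf stage (2–18 cm) for postemergence spraying, or to 2-leaf stage for the paddy test. Formulated compound is applied. Greenhouse holding lasts 13–15 days. Response is scored visually relative to controls, 0 no effect to 100 complete control; a dash means no result.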

wheat = assay: Test B postemergence herbicide test; format: in vivo, Triticum aestivum; parameters: key to Wheat plant response rating: 0 = no effect, 100 = complete control; details: for Plant response rating, Wheat: visual rating after 13 to 15 days
Summary of the method: as §3

wild oat = assay: Test B postemergence herbicide test; format: in vivo, Avena fatua; details: scale 0 (no effect) to 100 (complete control); for Plant response rating, Oat, Wild: visual rating after 13 to 15 days
Summary of the method: as §3

rice = assay: Test B flooded paddy test; format: in vivo, Oryza sativa; details: 1000 g ai/ha, scale 0 to 100 (0 no effect, 100 complete control)
Summary of the method: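 Postemergence plants were sprayed with formulated test chemicals at 2 to 18 cm height (1- to 4-leaf stage); paddy species were grown to the 2-leaf stage. After 13 to 15 days in a greenhouse, injury was rated visually against untreated controls on a 0–100 scale (0 = no effect, 100 = complete control).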

[2] = test system: small flower umbrella sedge; assay: Test B flooded paddy test; format: in vivo, Cyperus difformis; details: 1000 g ai/ha, scale 0 to 100 (0 no effect, 100 complete control)
Summary of the method: as §3

ducksalad = assay: Test B flooded paddy test; format: in vivo, Heteranthera limosa; details: 1000 g ai/ha, scale 0 to 100 (0 no effect, 100 complete control)
Summary of the method: as §3

barnyardgrass [3] = assay: Test B flooded paddy test; format: in vivo, Echinochloa crus-galli; details: 1000 g ai/ha, scale 0 to 100 (0 no effect, 100 complete control)
Summary of the method: as §3

[4] = 125 g ai/ha, 0 is no effect, 100 is complete control, preemergence
[5] = 125 g ai/ha, visual rating, scale 0 (no effect) to 100 (complete control), postemergence
[6] = Postemergence, 500 g ai/ha, scale 0 (no effect) to 100 (complete control)
[7] = 125 g ai/ha, visual rating, postemergence
[8] = Postemergence, 125 g ai/ha, scale 0 (no effect) to 100 (complete control)
[9] = Postemergence, 500 g ai/ha, visual rating after 13 to 15 days, scale 0 (no effect) to 100 (complete control)
[10] = Preemergence, 500 g ai/ha, scale 0 to 100
[11] = preemergence, 125 g ai/ha, 0 to 100 scale, 0 is no effect, 100 is complete control
[12] = postemergence, 125 g ai/ha, visual rating, scale 0 (no effect) to 100 (complete control)
[13] = postemergence, 125 g ai/ha, visual rating

CCNC(=O)c1cccc(NC(=O)c2nn(C(C)(C)C)nc2C)c1 [Compound 392]
Plant response rating (0 to 100 scale), Barnyardgrass (barnyardgrass [1]; [4]): 90 | Barnyardgrass plant response rating (barnyardgrass [1]; [5]): 10 | Barnyardgrass plant response rating (barnyardgrass [1]; [6]): 20 | Plant response rating (0 to 100 scale), Surinam Grass (Surinam grass; [4]): 70 | Surinam Grass plant response rating (Surinam grass; [5]): 10 | Surinam Grass plant response rating (Surinam grass; [6]): 20 | Plant response rating (0 to 100 scale), Cocklebur (cocklebur; [4]): 40 | Cocklebur plant response rating (cocklebur; [5]): 20 | Cocklebur plant response rating (cocklebur; [6]): 40 | Plant response rating (0 to 100 scale), Corn (corn; [4]): 70 | Corn plant response rating (corn; [5]): 0 | Corn plant response rating (corn; [6]): 20 | Plant response rating (0 to 100 scale), Crabgrass, Large (large crabgrass; [4]): 100 | Crabgrass, Large plant response rating (large crabgrass; [5]): 10 | Crabgrass, Large plant response rating (large crabgrass; [6]): 20 | Plant response rating (0 to 100 scale), Foxtail, Giant (giant foxtail; [4]): 80 | Foxtail, Giant plant response rating (giant foxtail; [5]): 20 | Foxtail, Giant plant response rating (giant foxtail; [6]): 30 | Plant response rating (0 to 100 scale), Lambsquarters (lambsquarters; [4]): 100 | Lambsquarters plant response rating (lambsquarters; [5]): 70 | Lambsquarters plant response rating (lambsquarters; [6]): 90 | Plant response rating (0 to 100 scale), Morningglory (morningglory; [4]): 90 | Morningglory plant response rating (morningglory; [5]): 20 | Morningglory plant response rating (morningglory; [6]): 70 | Plant response rating (0 to 100 scale), Pigweed (pigweed; [4]): 100 | Pigweed plant response rating (pigweed; [5]): 60 | Pigweed plant response rating (pigweed; [6]): 60 | Blackgrass plant response rating (blackgrass; [7]): 20 | Blackgrass plant response rating (blackgrass; Postemergence, 500 g ai/ha): 60 | Wheat plant response rating (wheat; [5]): 0 | Wheat plant response rating (wheat; 500 g ai/ha, scale 0 to 100, 0 no effect, 100 complete control, preemergence): 100 | Wheat plant response rating (wheat; [6]): 10 | Oat, Wild plant response rating (wild oat; [7]): 0 | Oat, Wild plant response rating (wild oat; Postemergence, 500 g ai/ha): 30 | Rice plant response rating (rice): 80 | Sedge, Umbrella plant response rating [2]: 80 | Ducksalad plant response rating (ducksalad): 80 | Barnyardgrass plant response rating (barnyardgrass [3]): 90

CCN(C)C(=O)c1cccc(NC(=O)c2cc(C(C)(C)C)nn2CC)c1 [Compound 48]
Barnyardgrass plant response rating (barnyardgrass [1]; [8]): 40 | Plant response rating, Barnyardgrass (barnyardgrass [1]; [9]): 60 | Barnyardgrass plant response rating (barnyardgrass [1]; [10]): 90 | Plant response rating, Surinam Grass (Surinam grass; [9]): 50 | Surinam Grass plant response rating (Surinam grass; [10]): 80 | Plant response rating, Surinam Grass (Surinam grass; [11]): 10 | Cocklebur plant response rating (cocklebur; [8]): 0 | Plant response rating, Cocklebur (cocklebur; [9]): 70 | Cocklebur plant response rating (cocklebur; [10]): 50 | Corn plant response rating (corn; [8]): 0 | Plant response rating, Corn (corn; [9]): 30 | Corn plant response rating (corn; [10]): 0 | Crabgrass, Large plant response rating (large crabgrass; [8]): 10 | Plant response rating, Crabgrass, Large (large crabgrass; [9]): 20 | Crabgrass, Large plant response rating (large crabgrass; [10]): 80 | Foxtail, Giant plant response rating (giant foxtail; [8]): 20 | Plant response rating, Foxtail, Giant (giant foxtail; [9]): 30 | Foxtail, Giant plant response rating (giant foxtail; [10]): 90 | Plant response rating, Foxtail, Giant (giant foxtail; [11]): 70 | Lambsquarters plant response rating (lambsquarters; [8]): 60 | Plant response rating, Lambsquarters (lambsquarters; [9]): 90 | Lambsquarters plant response rating (lambsquarters; [10]): 90 | Plant response rating, Lambsquarters (lambsquarters; [11]): 90 | Morningglory plant response rating (morningglory; [8]): 0 | Plant response rating, Morningglory (morningglory; [9]): 50 | Morningglory plant response rating (morningglory; [10]): 40 | Plant response rating, Morningglory (morningglory; [11]): 10 | Plant response rating, Pigweed (pigweed; [9]): 70 | Pigweed plant response rating (pigweed; [10]): 100 | Plant response rating, Pigweed (pigweed; [11]): 100 | Blackgrass plant response rating (blackgrass; Postemergence, 125 g ai/ha): 0 | Plant response rating, Blackgrass (blackgrass; Postemergence, 500 g ai/ha): 10 | Plant response rating, Wheat (wheat; [6]): 20 | Oat, Wild plant response rating (wild oat; Postemergence, 125 g ai/ha): 10 | Plant response rating, Oat, Wild (wild oat; Postemergence, 500 g ai/ha): 30 | Rice plant response rating (rice; visual rating, 13 to 15 days): 80 | Sedge, Umbrella plant response rating ([2]; visual rating, 13 to 15 days): 80 | Ducksalad plant response rating (ducksalad; visual rating, 13 to 15 days): 80 | Barnyardgrass plant response rating (barnyardgrass [3]; visual rating, 13 to 15 days): 80

CCOC(=O)c1cccc(NC(=O)c2cc(C(C)(C)C)nn2CC)c1C [Compound 88]
Plant response rating, Barnyardgrass (barnyardgrass [1]; [9]): 60 | Barnyardgrass plant response rating (barnyardgrass [1]; [10]): 90 | Barnyardgrass plant response rating (barnyardgrass [1]; [12]): 30 | Plant response rating, Barnyardgrass (barnyardgrass [1]; [11]): 70 | Plant response rating, Surinam Grass (Surinam grass; [9]): 0 | Surinam Grass plant response rating (Surinam grass; [12]): 0 | Plant response rating, Surinam Grass (Surinam grass; [11]): 20 | Plant response rating, Cocklebur (cocklebur; [9]): 50 | Cocklebur plant response rating (cocklebur; [10]): 0 | Cocklebur plant response rating (cocklebur; [12]): 10 | Plant response rating, Cocklebur (cocklebur; [11]): 0 | Plant response rating, Corn (corn; [9]): 70 | Corn plant response rating (corn; [10]): 60 | Corn plant response rating (corn; [12]): 10 | Plant response rating, Corn (corn; [11]): 0 | Plant response rating, Crabgrass, Large (large crabgrass; [9]): 60 | Crabgrass, Large plant response rating (large crabgrass; [10]): 100 | Crabgrass, Large plant response rating (large crabgrass; [12]): 30 | Plant response rating, Crabgrass, Large (large crabgrass; [11]): 90 | Plant response rating, Foxtail, Giant (giant foxtail; [9]): 40 | Foxtail, Giant plant response rating (giant foxtail; [10]): 90 | Foxtail, Giant plant response rating (giant foxtail; [12]): 30 | Plant response rating, Foxtail, Giant (giant foxtail; [11]): 70 | Plant response rating, Lambsquarters (lambsquarters; [9]): 100 | Lambsquarters plant response rating (lambsquarters; [12]): 70 | Plant response rating, Lambsquarters (lambsquarters; [11]): 100 | Plant response rating, Morningglory (morningglory; [9]): 0 | Morningglory plant response rating (morningglory; [12]): 0 | Plant response rating, Morningglory (morningglory; [11]): 0 | Plant response rating, Pigweed (pigweed; [9]): 60 | Pigweed plant response rating (pigweed; [12]): 50 | Plant response rating, Pigweed (pigweed; [11]): 100 | Plant response rating, Blackgrass (blackgrass; Postemergence, 500 g ai/ha): 0 | Blackgrass plant response rating (blackgrass; [13]): 0 | Plant response rating, Wheat (wheat; [6]): 0 | Wheat plant response rating (wheat; [12]): 0 | Plant response rating, Oat, Wild (wild oat; Postemergence, 500 g ai/ha): 0 | Oat, Wild plant response rating (wild oat; [13]): 0 | Rice plant response rating (rice; visual rating, 13 to 15 days): 40 | Sedge, Umbrella plant response rating ([2]; visual rating, 13 to 15 days): 80 | Ducksalad plant response rating (ducksalad; visual rating, 13 to 15 days): 80 | Barnyardgrass plant response rating (barnyardgrass [3]; visual rating, 13 to 15 days): 70
